Structures can show the parent of a compound that is named as a salt.
What was measured:
primary microglial cells = assay: peroxyl radical-induced oxidation of DCFH (ROS) in primary microglial cells; format: cell-based; details: microglial cells incubated 1 h with compound; ABAP 0.6 mM; FIG. 1
Protocol: Microglial cells were incubated for one h with (S)(−)citronellol (FIG. 1A) and (R)(+)citronellol (FIG. 1B). Primary cultures of microglial cells has been prepared according to Elmann et al., Journal of Functional Foods 2 (2010), pp. 18. As in Elmann et al. BMC Complementary and Alternative Medicine 2011, 11:98, the cultures of microglial cells were then preloaded with the non-fluorescent cell permeating compound, 2′7′-dichlorofluorescein diacetate (DCF-DA) for 30 min and washed with PBS, after which, 2,2′-Azobis(amidinopropane) (ABAP) (0.6 mM) was added and ROS levels were measured at the indicated time points. Each point on the graph represents mean±SEM of 2 experiments (n=8).

[1] = target: T1, human erythrocytes' acetyl cholinesterase (Homo sapiens, UniProt P22303); assay: acetyl cholinesterase fluorescent activity assay; format: biochemical; details: human erythrocytes' acetyl cholinesterase 25 mU/mL, FIGS. 2-4
T1 construct: from tissue; host or cells: human erythrocytes
Protocol: In this Example, Human erythrocytes acetyl cholinesterase (AChE) was incubated with different concentrations of geranium oil or each of its constituents.
(§1) In the results shown in FIG. 2, the different constituents were incubated with human erythrocytes' acetyl cholinesterase (25 mU/mL). The activity of acetyl cholinesterase was determined using a commercially available kit (acetyl cholinesterase fluorescent activity assay kit, Arbor assays).
Thus, inventors have tested the effect of both enantiomers on the enzymatic activity. […] The different enantiomers of citronellol were incubated with human erythrocytes' acetyl cholinesterase (25 mU/mL). The enzymatic activity was determined using a commercially available kit (acetyl cholinesterase fluorescent activity assay kit, Arbor assays).
as §1, with “In” for “In the results shown in”, “4,” for “2, the”, “constituents of geranium oil (Geraniol, Citronellol (+) and Citronellol formate)” for “constituents”

T1 sequence (P22303 32-617 isoform P22303-2 limits assumed): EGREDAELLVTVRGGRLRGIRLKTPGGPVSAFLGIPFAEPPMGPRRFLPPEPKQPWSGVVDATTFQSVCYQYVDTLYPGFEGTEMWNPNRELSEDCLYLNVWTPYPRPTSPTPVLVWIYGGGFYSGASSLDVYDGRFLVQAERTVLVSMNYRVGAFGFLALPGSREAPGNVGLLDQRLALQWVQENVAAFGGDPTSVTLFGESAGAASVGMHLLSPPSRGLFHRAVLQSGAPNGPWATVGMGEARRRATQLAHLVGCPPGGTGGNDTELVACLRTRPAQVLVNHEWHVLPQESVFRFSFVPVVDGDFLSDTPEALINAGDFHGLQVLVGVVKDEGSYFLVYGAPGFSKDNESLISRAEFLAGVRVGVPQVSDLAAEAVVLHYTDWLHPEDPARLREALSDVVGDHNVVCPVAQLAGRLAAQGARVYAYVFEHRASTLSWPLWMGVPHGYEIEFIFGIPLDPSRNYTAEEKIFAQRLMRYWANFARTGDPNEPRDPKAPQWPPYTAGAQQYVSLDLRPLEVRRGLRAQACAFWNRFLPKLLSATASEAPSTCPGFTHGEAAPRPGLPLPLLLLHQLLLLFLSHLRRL

Structure (SMILES)	peroxyl radical-induced oxidation of DCFH (ROS levels) (primary microglial cells)	enzymatic activity of acetyl cholinesterase [1]	enzymatic activity of acetyl cholinesterase ([1]; listed as Citronellol (+))	enzymatic activity of acetyl cholinesterase ([1]; listed as (S)(−)citronellol)
CC(C)=CCC[C@@H](C)CCO [(R)(+)citronellol, reference compound]	inhibit the peroxyl radical-induced oxidation of DCFH	not (R)(+)citronellol could inhibit the enzymatic activity	none of the constituents geraniol, Citronellol (+) and citronellol formate could inhibit AChE activity	
CC(C)=CCC[C@H](C)CCO [(S)(−)-citronellol]	inhibit the peroxyl radical-induced oxidation of DCFH	inhibited the enzymatic activity		could inhibit the enzymatic activity
CC(C)=CCCC(C)CCOC=O (centres unmarked) [citronellol formate, reference compound]		none of the constituents geraniol, Citronellol (+) and citronellol formate could inhibit AChE activity		
CC(C)=CCC/C(C)=C/CO [geraniol, reference compound]		none of the constituents geraniol, Citronellol (+) and citronellol formate could inhibit AChE activity		
CC(C)[C@H]1CC[C@@H](C)CC1=O [isomenthone]		inhibited the enzymatic activity		
C=CC(C)(O)CCC=C(C)C (centres unmarked) [linalool]		inhibited the enzymatic activity		
CC(C)[C@@H]1CC[C@@H](C)CC1=O [menthone]		inhibited the enzymatic activity		
